US8937155B2 (priority 2010, dated 2015)
≈ marks a conversion by molar mass, not a printed value. Entries after “also recorded” stand apart in the source; their conditions may differ. Ends that are not written are not given here. Peptide text beside a SMILES is read from it.

Columns and labels:
[1] = full mouse serum (pooled mouse serum, PAA Laboratories); conditions: 37° C., up to 480 min
[2] = bacterial lysate of E. coli BL21 AI; conditions: 37° C., up to 240 min
in vitro [3] = conditions: mouse
Method: (§2) The serum stabilities of all peptides were determined in pure and 25% (v/v) aqueous pooled mouse serum (PAA Laboratories GmbH, Pasching, Austria) (Hoffmann R, Vasko M, & Otvos L. Serum stability of phosphopeptides. Analytica Chimica Acta 352: 319-25, 1997). Peptides were dissolved in serum at a final concentration of 75 μg/mL and incubated at 37° C. Aliquots taken in triplicates after 0, 30, 60, 120 and 240 min were precipitated by addition of trichloroacetic acid to a final concentration of 3% (v/v). After 10 minutes on ice, the samples were centrifuged, the supernatant neutralized with sodium hydroxide solution (1 mol/L) and stored at −20° C. The samples were analyzed on the analytical Jupiter C18-column using a linear aqueous acetonitrile or methanol gradient containing 0.1% (v/v) TFA. The metabolites were identified by MALDI-TOF-MS.

K pneumoniae DSM 681 = format: cell-based, Klebsiella pneumoniae; conditions: DSM 681, 2 h
Method: (§1) Minimal inhibitory concentrations were determined in triplicates by a liquid broth microdilution assay in sterile 96-well plates (Greiner Bio-One GmbH, Frickenhausen, Germany) using a total volume of 100 μL per well (Amsterdam, D. Susceptibility testing of antimicrobials in liquid media in Antibiotics in laboratory medicine (ed. Lorian, V.) 52-111 (Lippincott Williams & Wilkins, Baltimore, 1996)). Aqueous peptide solutions (1 mg/mL) were serially two-fold diluted in 1% tryptic soy broth (TSB). A typical dilution series ranged from 128 μg/mL to 0.5 μg/mL in eight steps. Overnight cultures of bacteria were diluted with 1% TSB to 1.5×10^7 cells/mL (Klebsiella pneumoniae DSM 681, Escherichia coli BL21AI and DSM 10233) and 4×10^7 cells/mL (Micrococcus luteus ATCC 10240). Fifty μL of these solutions were added to each well gaining a starting cell concentration of 7.5×10^5 cells/well and 2×10^6 cells/well, respectively. […]

M. luteus DSM 10240 = format: cell-based, Micrococcus luteus; conditions: DSM 10240, 2 h
Method: as §1

in vitro [4] = conditions: for stability relative to the original oncocin sequence: bacterial lysate of E. coli BL21 AI; for half-life at 150 μg/mL: pH 7.4
Method: Bacteria (E. coli BL21 AI) were cultured over night at 37° C. in nutrient broth (Carl Roth GmbH & Co. KG, Karlsruhe, Germany). This suspension was centrifuged (5000 rpm, 4° C.) in a AVANTI® J=20-XP centrifuge using a JLA-10500 rotor (Beckman coulter, Fullerton, USA). The pellet was washed with phosphate buffered saline (PBS, 8.7 mmol/L Na2HPO4, 1.2 mmol/L KH2PO4, 150 mmol/L NaCl, pH 7.4) and centrifuged in an ALLEGRA® 21 R centrifuge (Beckman Coulter, 3000 rpm, 4° C., 20 min). The pellet was resuspended in PBS (60 mg/mL) and lysed on ice using ultra sonic (2×2 min with 2 s on/2 s off) applied via micro tip (750 W, 40% amplitude; Fisher Biobiock Scientific, Illkirch, France). One mL aliquots were centrifuged (15400 rpm, 20 min, 4° C.) and the supernatant was stored at −80′C.
The peptide concentration was determined with a Bradford protein assay (Bradford M M. Rapid and Sensitive Method for Quantitation of Microgram Quantities of Protein Utilizing Principle of Protein-Dye Binding. Analytical Biochemistry 72: 248-54, 1976). Briefly, 0.01% (w/v) Coomassie brilliant blue G250 was dissolved in 5% aqueous ethanol containing 8.5% orthophosphoric (Bradford reagent). The mixture was incubated first at 60° C. for 1 h and then at room temperature for 12 h. After filtration 200 μl of the reagent were mixed with 50 μl sample solution in a polystyrole 96-well plate and incubated for 15 min in the dark. The absorption was measured at 595 nm against the negative control (50 μl PBS+200 μL Bradford reagent). The protein concentration was calculated from a calibration curve of bovine serum albumin.
The stability against bacterial proteases was determined in a bacterial lysate of E. coli BL21 AI adjusted with PBS to a protein concentration of 0.5 mg/mL. Peptides were dissolved in the bacterial lysate at a final concentration of 150 μg/mL and incubated at 37° C. Aliquots were taken in triplicates after 0, 30, 60, 120, and 240 min and precipitated by addition of trichloroacetic acid to a final concentration of 3% (v/v). After 10 minutes on ice, the samples were centrifuged, the supernatant neutralized with sodium hydroxide solution (1 mol/L) and stored at −20° C. The samples were analyzed by RP-HPLC (Jupiter C18-column) using a linear aqueous acetonitrile or methanol gradient containing 0.1% (v/v) TFA. Metabolites were identified by MALDI-TOF-MS.

E. coli BL21 AI = test: MIC, liquid broth microdilution assay; format: cell-based, Escherichia coli; conditions: 1% TSB, 37° C., 20±2 h
Method: Minimal inhibitory concentrations were determined in triplicates by a liquid broth microdilution assay in sterile 96-well plates (Greiner Bio-One GmbH, Frickenhausen, Germany) using a total volume of 100 μL per well (Amsterdam, D. Susceptibility testing of antimicrobials in liquid media in Antibiotics in laboratory medicine (ed. Lorian, V.) 52-111 (Lippincott Williams & Wilkins, Baltimore, 1996)). Aqueous peptide solutions (1 mg/mL) were serially two-fold diluted in 1% tryptic soy broth (TSB). A typical dilution series ranged from 128 μg/mL to 0.5 μg/mL in eight steps. Overnight cultures of bacteria were diluted with 1% TSB to 1.5×10^7 cells/mL (Klebsiella pneumoniae DSM 681, Escherichia coli BL21AI and DSM 10233) and 4×10^7 cells/mL (Micrococcus luteus ATCC 10240). Fifty μL of these solutions were added to each well gaining a starting cell concentration of 7.5×10^5 cells/well and 2×10^6 cells/well, respectively. The plates were incubated at 37° C. and the absorbance of each well was measured after 20±2 h at 595 nm.

E. coli DSM 10233 = format: cell-based, Escherichia coli; conditions: DSM 10233, 2 h
Method: as §1

[5] = full mouse serum
Method: as §2

| Molecule | cleaved bond [1] | cleaved bond [2] | half-life at 75 μg/mL (in vitro [3]; full (pure) pooled mouse serum) [min] | minimal inhibitory concentration (MIC) K pneumoniae DSM 681 (K pneumoniae DSM 681) [µg/mL] | minimal inhibitory concentration (MIC) M. luteus DSM 10240 (M. luteus DSM 10240) [µg/mL] | stability relative to the original oncocin sequence (in vitro [4]) | half-life at 150 μg/mL (in vitro [4]; cells or culture medium) [min] | minimal inhibitory concentration (MIC) E. coli BL21 AI (E. coli BL21 AI) [µg/mL] | minimal inhibitory concentration (MIC) E. coli BL21 AI (E. coli BL21 AI; listed as 3) [µg/mL] | minimal inhibitory concentration (MIC) E. coli DSM 10233 (E. coli DSM 10233) [µg/mL] | starting derivative not degraded after 480 min [5] | half-life at 75 μg/mL (in vitro [3]; pure (full) pooled mouse serum) [min] | half-life at 150 μg/mL (in vitro [4]; Escherichia coli) [min] | remaining at 8 h, 75 μg/mL (in vitro [3]; full (pure, undiluted) pooled mouse serum) [%] |
| --- | --- | --- | --- | --- | --- | --- | --- | --- | --- | --- | --- | --- | --- | --- |
| VDKPPYLPRPRPPRRIYNR-NH2 | Arg15-Ile16, major; also recorded: Asn18-Arg19, major | Pro10-Arg11; also recorded: Pro13-Arg14; also recorded: Arg15-Ile16 |  |  |  |  |  |  |  |  |  |  |  |  |
| CC(C)C[C@H](NC(=O)[C@H](Cc1ccc(O)cc1)NC(=O)[C@@H]1CCCN1C(=O)[C@@H]1CCCN1C(=O)[C@H](CCCCN)NC(=O)[C@H](CC(=O)O)NC(=O)[C@@H](N)C(C)C)C(=O)N1CCC[C@H]1C(=O)N[C@@H](CCCNC(=N)N)C(=O)N1CCC[C@H]1C(=O)N[C@@H](CCCNC(=N)N)C(=O)N1CCC[C@H]1C(=O)N1C[C@H](O)C[C@H]1C(=O)N[C@@H](CCCNC(=N)N)C(=O)N1C[C@H](O)C[C@H]1C(=O)N[C@H](C(=O)N[C@@H](Cc1ccc(O)cc1)C(=O)N[C@@H](CC(N)=O)C(=O)N[C@@H](CCCN)C(N)=O)[C@@H](C)O [SEQ ID NO. 3, VDKPPYLPRPRP-4tHyp-R-4tHyp-TYNO-NH2] (HELM PEPTIDE1{V.D.K.P.P.Y.L.P.R.P.R.P.[Hyp].R.[Hyp].T.Y.N.[Orn].[am]}$$$$V2.0; N-terminus assumed) |  |  | > 480 | 8 (≈ 3.47 µM) | 32 (≈ 13.9 µM) | at least three times more stable | 240 | 2 to 4 | 4 (≈ 1.73 µM) | 2 to 4 | (60%) |  |  |  |
| CC(C)C[C@H](NC(=O)[C@H](Cc1ccc(O)cc1)NC(=O)[C@@H]1CCCN1C(=O)[C@@H]1CCCN1C(=O)[C@H](CCCCN)NC(=O)[C@H](CC(=O)O)NC(=O)[C@@H](N)C(C)C)C(=O)N1CCC[C@H]1C(=O)N[C@@H](CCCNC(=N)N)C(=O)N1CCC[C@H]1C(=O)N[C@@H](CCCNC(=N)N)C(=O)N1CCC[C@H]1C(=O)N1CCC[C@H]1C(=O)N[C@@H](CCCNC(=N)N)C(=O)N[C@@H](CCCN)C(=O)N[C@H](C(=O)N[C@@H](Cc1ccc(O)cc1)C(=O)N[C@@H](CC(N)=O)C(=O)N[C@@H](CCCN)C(N)=O)[C@@H](C)O [SEQ ID NO. 2, VDKPPYLPRPRPPROTYNO-NH2] (HELM PEPTIDE1{V.D.K.P.P.Y.L.P.R.P.R.P.P.R.[Orn].T.Y.N.[Orn].[am]}$$$$V2.0; N-terminus assumed) |  |  | 120 |  | 8 (≈ 3.49 µM) | at least three times more stable | 170 | 4 (≈ 1.74 µM) |  |  |  |  |  |  |
| VDKPPYLPRPRPPRRIYNR-NH2 [SEQ ID NO. 1, VDKPPYLPRPRPPRRIYNR-NH2, reference compound] |  |  |  | 4 | 8 |  |  | 4 |  | 16 |  | 30 | 60 |  |
| CC[C@H](C)[C@H](NC(=O)[C@H](CCCN)NC(=O)[C@H](CCCNC(=N)N)NC(=O)[C@@H]1CCCN1C(=O)[C@@H]1CCCN1C(=O)[C@H](CCCNC(=N)N)NC(=O)[C@@H]1CCCN1C(=O)[C@H](CCCNC(=N)N)NC(=O)[C@@H]1CCCN1C(=O)[C@H](CC(C)C)NC(=O)[C@H](Cc1ccc(O)cc1)NC(=O)[C@@H]1CCCN1C(=O)[C@@H]1CCCN1C(=O)[C@H](CCCCN)NC(=O)[C@H](CC(=O)O)NC(=O)[C@@H](N)C(C)C)C(=O)N[C@@H](Cc1ccc(O)cc1)C(=O)N[C@@H](CC(N)=O)C(=O)N[C@@H](CCCN)C(N)=O [SEQ ID NO. 4, VDKPPYLPRPRPPROIYNO-NH2, reference compound] (HELM PEPTIDE1{V.D.K.P.P.Y.L.P.R.P.R.P.P.R.[Orn].I.Y.N.[Orn].[am]}$$$$V2.0; N-terminus assumed) |  |  | 175 |  | 8 (≈ 3.47 µM) |  |  | 8 (≈ 3.47 µM) |  |  |  |  |  | 60 |
